Columns and labels:
Assay type in all cases: cell-based, human
[1] = tested on: p38MAPK phosphorylation in induced IRIS3 cells; assay: Immunoblot of p38MAPK phosphorylation (p-p38MAPK/p38MAPK, ImageJ)
Experimental: (§1) IRIS 1 and IRIS3 induced for 72 h were exposed to 0, 10, 20 or 40 mJ/cm^2 of UVC irradiation. After 24 h, compared with IRIS1, induced IRIS3 cells treated with 0 mJ/cm^2 UVC had higher levels of BRCA1-IRIS, p53, WIP1, p-p38MAPK, yet similar levels of p38MAPK and p-p53 (FIG. 9F). In 10 and 20 mJ/cm^2 treated cells, BRCA1-IRIS, p53 and WIP1 levels remained higher in induced IRIS3 and no change in p38MAPK level (FIG. 9F). […] Finally, in 40 mJ/cm^2 UVC-treated cells, BRCA1-IRIS, p53 and WIP1 levels were still detectable in induced IRIS3 but not in IRIS1 cells (FIG. 9F). In contrast, IRIS1 and not induced IRIS3 cells contained detectable levels of p-p53 and p-p38MAPK (FIG. 9F). The intensity of the p53, p-p53, p38MAPK and p-p38MAPK bands in FIG. 9F were measured using ImageJ program (NIH) to estimate the level of p53 and p38MAPK activation in BRCA1-IRIS overexpressing cells. About 50% of p53 in IRIS1 cells was phosphorylated before UVC exposure that rose to 80-100% after the exposure (FIG. 9G). In contrast, only 20% of p53 was phosphorylated in induced IRIS3 cells before UVC dropping to <10% after UVC (FIG. 9G). p38MAPK phosphorylation was undetectable in IRIS1 cells before UVC exposure but rose to ˜100% after UVC (FIG. 9G). In induced IRIS3 cells, the 100% of p38MAPK phosphorylated before UVC exposure dropped to <20% after UVC exposure (FIG. 9G). […]

[2] = tested on: HME cells; assay: TUNEL detection (FragEL DNA fragmentation kit)
Experimental: (§2) HME and induced IRIS3 (72 h) cells were exposed to 40 mJ/cm^2 UVC, 10 μM of etoposide or 15 μM of H2O2 in the presence or absence of 10 μM of SB203580, p53 siRNA or 10 μM of CCT007093.
(§3) The Flurescein FragEL DNA Fragmentation Detection Kit was used according to the supplier (Calbiochem) protocol.

[3] = tested on: induced IRIS3 cells; assay: TUNEL detection (FragEL DNA fragmentation kit)
Experimental: as §2, §3

[4] = tested on: p38MAPK phosphorylation in HME cells; assay: Immunoblot of p38MAPK phosphorylation; conditions: 10 μM CCT007093
Experimental: (§4) CCT007093 is a novel WIP1 specific inhibitor. The HME and induced IRIS3 (72 h) cells were untreated or exposed to 20 mJ/cm^2 UVC, 10 μM of CCT007093 or both. BRCA1-IRIS, p53 and WIP1 level was low in HME and high in IRIS3 cells, whereas p38MAPK was high in both the cell lines. These levels were not changed in both cell lines following any of the treatments (FIG. 9H). p-p53 level was low in untreated HME and IRIS3 cells (FIG. 9H, lanes 1 and 5), rose after UVC treatment, decreased after CCT007093 treatment and increased in UVC+CCT007093-treated HME cells (FIG. 9H) Importantly, in induced IRIS3 cells, p-p53 level decreased after UVC treatment, increased after CCT007093 treatment and remained high after the combined treatment (FIG. 9H).
(§5) BT474, MCF7 and SKBR3 cells were maintained in Roswell Park Memorial Institute medium (Invitrogen) supplemented with 10% fetal bovine serum and antibiotics. SOAS2 and HEK293T cells were maintained Dulbecco's Modified Eagle medium (Invitrogen) with 10% serum. HME maintenance was as described in ElShamy and Livingston, 2004. Cancer or HME cells were at 80% confluence in 10 cm^2 dishes and were treated with UVC (different doses), SB203580 (10 μM, Sigma, St. Louis, Mo., USA), etoposide (10 μM, Sigma) and H2O2 (15 μM, Sigma) or CCT007093 (10 μM, Santa Cruz, Santa Cruz, Calif., USA), and these drugs were added directly to the cells.

[5] = tested on: p53 phosphorylation in HME cells; assay: Immunoblot of p53 phosphorylation; conditions: 10 μM CCT007093 alone
Experimental: as §4, §5

[6] = tested on: p53 phosphorylation in induced IRIS3 cells; assay: Immunoblot of p53 phosphorylation (p-p53/p53, ImageJ)
Experimental: as §1

[7] = tested on: SKBR3 cells; assay: LIVE/DEAD cell death assay; conditions: for level of cell death: SKBR3, all conditions, 10 μM etoposide or 15 μM H2O2
Experimental: (§6) MCF7 and SKBR3 cell lines transfected with luciferase or BRCA1-IRIS siRNAs in the presence or absence of p38MAPK inhibitor (SB203580) or p53 siRNA were exposed to 40 mJ/cm^2 UVC, 10 μM etoposide or 15 μM H2O2. […] This was confirmed by phase-contrast cell counting (FIG. 9I) and trypan blue exclusion using ViCell (Beckman Coulter, Fullerton, Calif., USA, FIG. 9J).
(§7) The LIVE/DEAD Fixable Dead Cell Stain Kit was used according to the supplier (Invitrogen) protocol.

[8] = tested on: MCF7 cells; assay: LIVE/DEAD cell death assay; conditions: for level of cell death: MCF7, all conditions, 10 μM etoposide or 15 μM H2O2
Experimental: as §6, §7

[9] = tested on: AKT1, AKT2 and survivin expression in OVCAR-5 cells; assay: Immunoblot of AKT1, AKT2 and survivin; conditions: OVCAR-5, cisplatin 35 μM 24 h alone
Excerpt: (§8) Immunoblotting. […] Bcl-2 (clone 124; Dako Diagnostics AG), Bcl-xL (Transduction Laboratories), actin (Ab-1, CP01, Oncogene) and phospho-Survivin (T34, Novus Biologicals). Mouse antibody against BRCA1-IRIS was generated in our laboratory.
(§9) BRCA1-IRIS downregulation sensitizes ovarian cancer cell lines to cisplatin-induced survivin downregulation and cell death.

[10] = tested on: BRCA1-IRIS, AKT and survivin expression in HOSE cells; assay: Immunoblot of BRCA1-IRIS, AKT and survivin after cisplatin; conditions: 24 h
Excerpt: as §8
Ovarian cancer cells expressing high level of survivin usually are cisplatin-resistant.

[11] = tested on: BRCA1-IRIS, AKT and survivin expression in SK-OV-3 cells; assay: Immunoblot of BRCA1-IRIS, AKT, p-AKT and survivin; conditions: SK-OV-3, cisplatin 35 μM 24 h alone
Experimental: as §8
BRCA1-IRIS-induced survivin expression is partially AKT-dependent. AKT (siRNA silences AKT1 and AKT2), BRCA1-IRIS, survivin or AKT and BRCA1-IRIS were silenced in SK-OV-3 cells (endogenously overexpressing all proteins, see FIG. 1B) for 72 h. […] Survivin silencing had no effect on BRCA1-IRIS or AKTs the expression (FIG. 2G). Identical results were obtained using MCAS cell line.
(§10) BRCA1-IRIS overexpression-induced survivin expression is partially PI3′K/AKT-independent. To study this further, MCAS or SK-OV-3 cells were exposed to the PI3′K inhibitor, LY294002 for 24 h or were transfected with BRCA1-IRIS siRNA for 48 h before they were exposed to LY294002 and left for another 24 h. […] Indeed, LY294002 decreased survivin expression in HOSE/vector cells but had little effect in HOSE/IRIS cells (FIG. 3B).
as §9

[12] = tested on: AKT and survivin expression in MCAS cells; assay: Immunoblot of AKT, p-AKT and survivin; conditions: cisplatin 35 μM 24 h alone
Experimental: as §8, §10, §9

[13] = tested on: MCAS cells; assay: MTT cell viability after cisplatin; conditions: cisplatin 48 h
Experimental: (§11) MTT and activated caspases 3 and 7 assays. Done using the Cell Titer 96® AQueous One Solution Cell Proliferation Assay (#G3580, Promega) Caspase-Glo 3/7 Assay (#G8091, Promega), respectively as per manufacturer's instructions. Measurements were obtained using optical at 490 nm. Each experiment was done in 8 samples and the whole experiment was repeated 3 separate times. […] As expected, low viability and high level of active caspase3/7 were detected in IGROV-1 (FIG. 5C), showing an IC50 of ˜5 μM.

[14] = tested on: OVCAR-5 cells; assay: MTT cell viability after cisplatin; conditions: OVCAR-5, cisplatin 48 h
Experimental: as §11

[15] = tested on: SK-OV-3 cells; assay: MTT cell viability after cisplatin; conditions: SK-OV-3, cisplatin 48 h
Experimental: as §11

[16] = tested on: IGROV-1 cells; assay: MTT cell viability after cisplatin; conditions: IGROV-1, cisplatin 48 h
Experimental: as §11

[17] = tested on: HOSE/AKT3 cells; assay: MTT cell viability after cisplatin; conditions: HOSE/AKT3, cisplatin 48 h
Excerpt: (§12) MTT and activated caspases 3 and 7 assays. Done using the Cell Titer 96® AQueous One Solution Cell Proliferation Assay (#G3580, Promega) Caspase-Glo 3/7 Assay (#G8091, Promega), respectively as per manufacturer's instructions. Measurements were obtained using optical at 490 nm. Each experiment was done in 8 samples and the whole experiment was repeated 3 separate times.

[18] = tested on: HOSE/survivin cells; assay: MTT cell viability after cisplatin; conditions: cisplatin 48 h
Excerpt: as §12

[19] = tested on: HOSE/IRIS cells; assay: MTT cell viability after cisplatin; conditions: cisplatin 48 h
Excerpt: as §12

[20] = tested on: HOSE/AKT2 cells; assay: MTT cell viability after cisplatin; conditions: HOSE/AKT2, cisplatin 48 h
Excerpt: as §12

[21] = tested on: HOSE/vector cells; assay: MTT cell viability after cisplatin; conditions: cisplatin 48 h
Excerpt: as §12

[22] = tested on: HOSE/AKT1 cells; assay: MTT cell viability after cisplatin; conditions: HOSE/AKT1, cisplatin 48 h
Excerpt: as §12

[23] = tested on: p53 and p38MAPK phosphorylation in induced IRIS2 cells; assay: Immunoblot of p-p53 and p-p38MAPK after etoposide
Experimental: (§13) Induced IRIS2 on the other hand maintained high level of BRCA1-IRIS, p53 and WIP1 even in the presence of 50 μM of etoposide and had similar level of total p38MAPK (FIG. 8I). Etoposide treatment triggered p53 phosphorylation in IRIS1 but not in the induced IRIS2 cells (Supplementary FIG. 8I).

[24] = tested on: p53 and p38MAPK phosphorylation in IRIS1 cells; assay: Immunoblot of p-p53 and p-p38MAPK after etoposide
Experimental: as §13

[25] = induced IRIS3, 20 mJ/cm^2 UVC in presence of 10 μM CCT007093
[26] = HME, 10 μM etoposide or 15 μM H2O2
[27] = induced IRIS3, 10 μM etoposide or 15 μM H2O2

With `O=C1/C(=C/c2cccs2)CC/C1=C\c1cccs1` [CCT007093] the p-p38MAPK level ([1]; induced IRIS3, 10 μM CCT007093 alone or with UVC) was “remained high”, the “p38MAPK phosphorylated (p-p38MAPK/p38MAPK ratio)” value [1, 25] was about 55% and the “number of TUNEL+ cells” value ([2]; HME under UVC, etoposide or H2O2, 10 μM CCT007093 vs vehicle) was “not”. The “number of TUNEL+ cells” value ([2]; HME, 10 μM CCT007093, no stress treatment) was “increased slightly yet significantly”, the “number of TUNEL+ cells” value ([3]; induced IRIS3, 10 μM CCT007093, no stress treatment) was “not” and the “number of TUNEL+ cells” value ([3]; induced IRIS3 under UVC, etoposide or H2O2, 10 μM CCT007093 vs vehicle) was “significantly increased”. For the same compound, the p-p38MAPK level [4] was “increased”, the p-p53 level [5] was “decreased” and the p-p53 level ([6]; induced IRIS3, 10 μM CCT007093 alone) was “increased”. The “p53 phosphorylated (p-p53/p53 ratio)” value [6, 25] was about 75%.

For `OO` [H2O2], the “number of TUNEL+ cells” value [2, 26] was “markedly increased”, the “number of TUNEL+ cells” value [3, 27] was “only modestly increasing” and the “level of cell death” value [7] was “increased”. For the same compound, the “level of cell death” value [8] was “increased”.

`C[S+]([O-])c1ccc(-c2nc(-c3ccncc3)c(-c3ccc(F)cc3)[nH]2)cc1` (centres unmarked) [SB203580] was tested, and the “number of TUNEL+ cells” value ([2]; HME under UVC, etoposide or H2O2, plus 10 μM SB203580 or p53 siRNA) was “significantly reduced”, the “number of TUNEL+ cells” value ([3]; induced IRIS3 under UVC, etoposide or H2O2, plus 10 μM SB203580 or p53 siRNA) was “stayed the same” and the “dead cells induced by BRCA1-IRIS silencing” value ([7]; SKBR3, BRCA1-IRIS silenced plus SB203580 or p53 siRNA) was “significantly reduced”. For the same compound, the “dead cells induced by BRCA1-IRIS silencing” value ([8]; MCF7, BRCA1-IRIS silenced plus SB203580 or p53 siRNA) was “significantly reduced”.

For `N.N.[Cl][Pt][Cl]` [cisplatin], the “expression of AKT1, AKT2 and survivin” value [9] was “modestly decreased”, the “BRCA1-IRIS, AKT and survivin expression” value ([10]; high concentrations cisplatin (>50 μM)) was “abolished” and the “BRCA1-IRIS, AKT and survivin expression” value ([10]; low concentrations cisplatin (≦50 μM)) was “triggered”. For the same compound, the “expression of AKT1, AKT2 and survivin” value [11] was “modestly decreased”, the “expression of AKT1, AKT2 and survivin” value [12] was “modestly decreased” and the IC50 [13] was about 40 µM. The IC50 [14] was about 25 µM, the IC50 [15] was about 40 µM and the IC50 [16] was about 5 µM. It also gave an IC50 [17] of 15 to 20 µM, an IC50 [18] of about 75 µM and an IC50 [19] of about 75 µM. For the same compound, the IC50 [20] was about 75 µM, the IC50 [21] was 15 to 20 µM and the IC50 [22] was about 75 µM.

`COc1cc([C@@H]2c3cc4c(cc3[C@@H](O[C@@H]3O[C@@H]5CO[C@@H](C)O[C@H]5[C@H](O)[C@H]3O)[C@H]3COC(=O)[C@H]23)OCO4)cc(OC)c1O` [etoposide] was tested, and the “number of TUNEL+ cells” value [2, 26] was “markedly increased”, the “number of TUNEL+ cells” value [3, 27] was “only modestly increasing” and the “level of cell death” value [7] was “increased”. The “level of cell death” value [8] was “increased”, the p-p38MAPK level ([23]; induced IRIS2, after etoposide treatment) was “sharply dropped” and the p53 phosphorylation ([23]; induced IRIS2, etoposide 5, 10 or 50 μM, 24 h) was “not”. For the same compound, the p-p38MAPK level ([24]; IRIS1, after etoposide treatment) was “increased significantly” and the p53 phosphorylation ([24]; IRIS1, etoposide 5, 10 or 50 μM, 24 h) was “triggered”.
